One block for each molecule: values may come before it.
Tests used:
[1] = test system: HEK 293T cells; assay: PI4,5P2 levels by ICC after rapamycin-induced recruitment of the Inp45p phosphatase to the plasma membrane; assay type: cell-based; details: HEK 293T expressing Lyn-FRB and FKBP-CFP-Inp54p, rapamycin 500 nM; DMSO treated cells set at 100%
Protocol: (§1) FIGS. 15A-15E include fluorescent micrographs, a micrograph, and graphs showing that the enhancing effect of α-Syn on CME is PI4,5P2 dependent. (15A) HEK 293T cells, transfected to co-express the three plasmids: Lyn-FRB, FKBP-CFP-Inp54p and WT α-Syn. On day of experiment, cells were serum starved for 90 minutes and then incubated for 7 minutes with 568-Tf and rapamycin (500 nM) to induce the recruitment of the Inp45p phosphatase (P-ase) to the plasma membrane along with internalization of 568-Tf. Control cells were treated in parallel with DMSO (0.5% v/v). Cells were then acid-washed, fixed and immunoreacted with anti α-Syn ab (MJFR1; Green). Direct fluorescence for CFP (P-ase; Grey) and 568-Tf (Red). (15B) HEK 293T cells expressing Lyn-FRB and FKBP-CFP-Inp54p were treated either with rapamycin or DMSO as described in (15A), followed by immunoreaction with anti PI4,5P2 ab (Echelon). A quantification of PI4,5P2 signal is shown (n>9 cells per treatment; mean±SE; * P<0.01 t-test). (15C) Graph showing quantification of internalized 568-Tf signal in cells transfected and treated as in (15A). Cells transfected with a mock vector (white bars, squares) or α-Syn (black bars, circles). […] Protein samples were analyzed by a western blot, immunoreacted with anti-Nir2 ab (Abcam). […] Sister cultures were immunoreacted with anti PI4,5P2 ab and analyzed by FACS. […]

[2] = test system: HEK 293T cells; assay: 568-Tf (transferrin) endocytosis with the rapamycin-inducible phosphatase; assay type: cell-based; details: control cultures without Inp45p expression
Protocol: as §1

[3] = test system: PI3K/AKT pathway; assay: Treatments in disease models with inhibitors of the PI3K/AKT pathway
Description: The PI3K/AKT pathway is activated in brains affected with PD and models thereof. Activated PI3K/AKT is exemplified by increases in PI3-Ps, including PI3,4,5P3 and PI3,4P2 that are required for the phosphorylation and activation of AKT phosphorylation at Thr308 and Ser 473. α-Syn is involved in activation of PI3K/AKT pathway. PI3K/AKT activation by α-Syn involves protein palmitoylation. […] Inhibitors of the PI3K/AKT pathway are useful to inhibit α-Syn′ toxicity. These may include Alpelisib and additional inhibitors of PI3K class I that act peripherally not crossing the blood brain barrier (BBB); or GDC-0084 and similar agents that can cross the BBB and act at the central nervous system. Or inhibitors of class II PI3K, for example, HY-151491, HY-151492 or HY-151490.α-Syn enhances PI3K activity by enhancing protein palmitoylation, including Ras palmitoylation that regulates PI3K activity. Class I and class II PI3Ks enzymes harbor a Ras binding domain and thus are affected by α-Syn. Class I and class II PI3Ks enzymes are activated by α-Syn and are targets for PD therapy. Inhibitors for class I and class II PI3Ks may be used for drug repurposing

[4] = test system: Numb-associated kinases (NAKs); assay: pAP2 (phospho-Thr156 μ2 subunit of AP2) signal by ICC in SK-Mel2 cells; assay type: cell-based; details: 10 μM for 3 hours
Protocol: FIGS. 12A-12H include fluorescent micrographs and graphs showing that α-Syn colocalizes with phosphorylated AP2 and PIP2 on clathrin-coated pits. (12A) SK-Mel2 cells were processed for the detection of the immunoreactive signals of endogenous α-Syn (ab 21976 ab, red), phosphorylated Thr156 μ2 subunit of AP2 (pAP2; gray) and PI4,5P2 (green) by immunocytochemistry (ICC). Bar=10 μm. (12B) SK-Mel2 cells treated with LP-935509 (10 μM, for 3 hours), to inhibit the phosphorylation of the μ2 subunit of AP2 and processed for ICC as in (12A). Bar=[…]. (12C) SK-Mel2 cells infected with lentivirus encoding shSNCA to silence α-Syn expression. Cells were treated with LP-935509 inhibitor as in (12B) and processed for ICC. Bar=[…]. (12D) SK-Mel2 cells as in (12A), however, immunoreacted for PI3,4P2 detection (green). Bar=[…]. […] Cells analyzed by FACS to immunodetect PI4,5P2 levels. […] (12G) Cells analyzed by FACS as in (12F) to detect PI3,4P2 signal. […] Colocalization of the signal obtained for α-Syn with the specified PIP was quantified and normalized to total α-Syn positive spots. […]
Phosphorylation at Thr156 of μ2 subunit of the clathrin adaptor AP2 starts following its binding to PI4,5P2 at the initiation of a CCP and throughout vesicle lifetime. The inventors analyzed SK-Mel2 cells, which express detectable levels of endogenous α-Syn protein. […]

[5] = test system: PI3K/AKT pathway; assay: PIP3/PIP2 ratio (FACS) and PSer473/total AKT (Western blot) in HepG2 cells expressing α-Syn; assay type: cell-based; details: inhibitor 100 nM for 2 hours, combined with CRISPR/CAS for PI3KCA or PI3KCB
Protocol: FIGS. 25A-25D include vertical bar graphs showing that silencing either PI3KCA or PI3KCB interfere with α-Syn-mediated AKT activation. (25A) HepG2 cells were co-infected with an empty vector (EV) or α-Syn expressing vector together with a CRISPR/CAS vector to silence either PI3KCA (CA, p110α) or PI3KCB (CB, p110β), or a control vector (CT). 72 hours post infection, cells were processed for the detection of PIPs by FACS or analyzed by Western blotting for the detection of AKT. […] (25B) The effect of PIK75 (100 nM, PI3KCA inhibitor) or TGX 221 (100 nM, PIKCB inhibitor) on PIP3/PIP2 ratio (left) or PSer473/total AKT ratio (right) as a function of α-Syn expression. Inhibitors were added for 2 hours before cells were lysed. […] Results are mean±SD of n=3-4 trials.

[6] = test system: APT1/APT2 depalmitoylases; assay: PIP3/PIP2 ratio by FACS in α-Syn expressing HepG2 cells with depalmitoylase inhibitors; assay type: cell-based; details: serum starved 4 hours, 10 μM each
Protocol: ML348 and ML349, inhibit the depalmitoylating enzymes Acyl protein thioesterase 1 and 2 (APT-1, APT-2, respectively). HepG2 cells were infected to express a mock vector (EV) or α-Syn. 5 days post infection, cells were serum starved for 4 hours in the presence of the indicated inhibitors: 2-Bromo-Palmitate (2BP 50 μM, an inhibitor of palmitoylation), ML348 and ML349 (10 μM each). PIP levels determined by FACS as in FIG. 4. The ratio of PI3,4,5P3 (PIP3) to PI4,5P2 (PIP2) is presented. A representative experiment out of n=2 highly similar experiments. Mean±SE of the replicates within one experiment, n>2,000 gated cells.

[7] = test system: muscarinic receptors
Protocol: To confirm the specificity of the PI4,5P2 signal that the inventors detected using anti PI4,5P2 Ab in cortical neurons, PI4,5P2 signal depletion following phospholipase C (PLC) activation was determined. […] Control cells were conditioned and treated in parallel but without the drug. Cells were fixed and immunoreacted with anti PI4,5P2 ab (FIG. 10A).

Compound: CO[C@H]1C[C@@H]2CC[C@@H](C)[C@@](O)(O2)C(=O)C(=O)N2CCCC[C@H]2C(=O)O[C@H]([C@H](C)C[C@@H]2CC[C@@H](O)[C@H](OC)C2)CC(=O)[C@H](C)/C=C(\C)[C@@H](O)[C@@H](OC)C(=O)[C@H](C)C[C@H](C)/C=C/C=C/C=C/1C [rapamycin]
- PI4,5P2 levels [1]: 26%
- α-Syn-induced CME (568-Tf internalization) [2]: no effect

Compound: NC1(c2ccc(-c3nc4ccn5c(=O)[nH]nc5c4cc3-c3ccccc3)cc2)CCC1 [MK2206]
- aberrant activation of the PI3K/AKT pathway by α-Syn [3]: reduce the aberrant activation of this pathway by α-Syn

Compound: COc1ncccc1-c1cnn2ccc(N3CCN(C(=O)OC(C)C)CC3)nc12 [LP-935509]
- colocalization of α-Syn and pAP2 [4]: no obvious colocalization
- pAP2 signal [4]: dramatically reduced

Compound: Cc1ccc([N+](=O)[O-])cc1S(=O)(=O)N(C)/N=C/c1cnc2ccc(Br)cn12 [PIK75]
- α-Syn-mediated increases in PI3K/AKT pathway activation (PIP3/PIP2 ratio, PSer473/total AKT) [5]: inhibition of α-Syn-mediated increases in PI3K/AKT pathway activation
- aberrant activation of the PI3K/AKT pathway by α-Syn [3]: reduce the aberrant activation of this pathway by α-Syn

Compound: COc1ccc(N2CCN(C(=O)c3cc4c(s3)-c3ccccc3S(=O)(=O)C4)CC2)cc1 [ML349]
- effects of α-Syn to enhance PIP3 levels (PIP3 to PIP2 ratio) [6]: interfere with the effects of α-Syn to enhance PIP3 levels

Compound: O=C(CN1CCN(C(=O)c2ccco2)CC1)Nc1cc(C(F)(F)F)ccc1Cl [ML348]
- effects of α-Syn to enhance PIP3 levels (PIP3 to PIP2 ratio) [6]: interfere with the effects of α-Syn to enhance PIP3 levels

Compound: Cc1cc(C(C)Nc2ccccc2)c2nc(N3CCOCC3)cc(=O)n2c1 (stereo not drawn) [TGX 221]
- α-Syn-mediated increases in PI3K/AKT pathway activation (PIP3/PIP2 ratio, PSer473/total AKT) [5]: inhibition of α-Syn-mediated increases in PI3K/AKT pathway activation
- aberrant activation of the PI3K/AKT pathway by α-Syn [3]: reduce the aberrant activation of this pathway by α-Syn

- PI4,5P2 signal following PLC activation [7]: loss of PI4,5P2 signal
Compound: CC[C@@H]1C(=O)OC[C@@H]1Cc1cncn1C [pilocarpine]

Source: patent publication US20230288433A1, “DETECTION OF PHOSPHOINOSITIDES IN BLOOD CELLS AS A BIOMARKER FOR ALPHA SYNUCLEIN ASSOCIATED PATHOLOGIES AND A METHOD OF TREATMENT OF PARKINSON'S DISEASE AND THE RELATED NEURODEGENERATIONS” (YISSUM RESEARCH DEVELOPMENT COMPANY OF THE HEBREW …, priority 2021, published 2023)
